From ChEMBL document CHEMBL1157069, “JBIR-22, an inhibitor for protein-protein interaction of the homodimer of proteasome assembly factor 3” (J Nat Prod, 2010)

Experiments:
[1] = target: Catenin beta-1/Transcription factor 7 (Homo sapiens, UniProt P35222+P36402); test: Inhibition of T cell factor7/beta-catenin interaction by protein fragment complementation assay; type: cell-based
[2] = target: T1, PAC1-PAC2 complex (Homo sapiens, UniProt O95456+Q969U7); test: Inhibition of PAC1/PAC2 interaction by protein fragment complementation assay; type: protein-complex assay
T1 sequence (O95456 whole entry): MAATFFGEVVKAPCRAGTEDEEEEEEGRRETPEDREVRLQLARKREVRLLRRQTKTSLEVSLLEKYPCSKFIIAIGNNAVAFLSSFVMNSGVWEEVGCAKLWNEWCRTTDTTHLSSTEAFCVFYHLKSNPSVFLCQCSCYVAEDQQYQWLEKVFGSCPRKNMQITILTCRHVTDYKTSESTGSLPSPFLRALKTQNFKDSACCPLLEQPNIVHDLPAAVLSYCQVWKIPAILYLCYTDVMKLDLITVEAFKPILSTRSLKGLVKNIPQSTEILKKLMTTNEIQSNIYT
T1 sequence (Q969U7 whole entry): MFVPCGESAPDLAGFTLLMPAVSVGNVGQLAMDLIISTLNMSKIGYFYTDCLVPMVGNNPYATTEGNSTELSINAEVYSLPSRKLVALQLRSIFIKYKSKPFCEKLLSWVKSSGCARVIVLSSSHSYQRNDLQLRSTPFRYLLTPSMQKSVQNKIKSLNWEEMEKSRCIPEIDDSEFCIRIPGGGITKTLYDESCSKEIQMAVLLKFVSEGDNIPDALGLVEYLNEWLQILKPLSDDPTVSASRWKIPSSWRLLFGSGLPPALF

[3] = target: T2, Proteasome assembly chaperone 3 (Homo sapiens, UniProt Q9BT73); test: Inhibition of PAC3 homodimerization by protein fragment complementation assay
T2 sequence (Q9BT73 whole entry): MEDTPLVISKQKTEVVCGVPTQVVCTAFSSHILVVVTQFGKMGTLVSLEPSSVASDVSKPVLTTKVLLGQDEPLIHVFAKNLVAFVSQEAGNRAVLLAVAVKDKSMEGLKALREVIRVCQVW

[4] = system: HeLa; test: Cytotoxicity against human HeLa cells after 120 hrs by WST8 assay; type: functional, cell-based
[5] = system: HeLa; test: Cytotoxicity against human HeLa cells after 48 hrs by WST8 assay; type: functional, cell-based

Chain of Catenin beta-1/Transcription factor 7 (P36402 whole entry, the tested form may be a part): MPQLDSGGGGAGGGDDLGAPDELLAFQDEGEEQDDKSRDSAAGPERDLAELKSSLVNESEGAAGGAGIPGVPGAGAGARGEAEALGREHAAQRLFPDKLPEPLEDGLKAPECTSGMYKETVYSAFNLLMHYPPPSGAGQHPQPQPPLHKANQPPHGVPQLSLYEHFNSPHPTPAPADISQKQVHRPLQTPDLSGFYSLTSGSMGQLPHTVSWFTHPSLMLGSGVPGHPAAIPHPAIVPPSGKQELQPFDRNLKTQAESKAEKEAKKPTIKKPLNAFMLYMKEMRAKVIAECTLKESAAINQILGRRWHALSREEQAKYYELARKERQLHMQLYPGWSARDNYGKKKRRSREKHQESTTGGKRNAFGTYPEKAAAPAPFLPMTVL
Chain of Catenin beta-1/Transcription factor 7 (P35222 whole entry, the tested form may be a part): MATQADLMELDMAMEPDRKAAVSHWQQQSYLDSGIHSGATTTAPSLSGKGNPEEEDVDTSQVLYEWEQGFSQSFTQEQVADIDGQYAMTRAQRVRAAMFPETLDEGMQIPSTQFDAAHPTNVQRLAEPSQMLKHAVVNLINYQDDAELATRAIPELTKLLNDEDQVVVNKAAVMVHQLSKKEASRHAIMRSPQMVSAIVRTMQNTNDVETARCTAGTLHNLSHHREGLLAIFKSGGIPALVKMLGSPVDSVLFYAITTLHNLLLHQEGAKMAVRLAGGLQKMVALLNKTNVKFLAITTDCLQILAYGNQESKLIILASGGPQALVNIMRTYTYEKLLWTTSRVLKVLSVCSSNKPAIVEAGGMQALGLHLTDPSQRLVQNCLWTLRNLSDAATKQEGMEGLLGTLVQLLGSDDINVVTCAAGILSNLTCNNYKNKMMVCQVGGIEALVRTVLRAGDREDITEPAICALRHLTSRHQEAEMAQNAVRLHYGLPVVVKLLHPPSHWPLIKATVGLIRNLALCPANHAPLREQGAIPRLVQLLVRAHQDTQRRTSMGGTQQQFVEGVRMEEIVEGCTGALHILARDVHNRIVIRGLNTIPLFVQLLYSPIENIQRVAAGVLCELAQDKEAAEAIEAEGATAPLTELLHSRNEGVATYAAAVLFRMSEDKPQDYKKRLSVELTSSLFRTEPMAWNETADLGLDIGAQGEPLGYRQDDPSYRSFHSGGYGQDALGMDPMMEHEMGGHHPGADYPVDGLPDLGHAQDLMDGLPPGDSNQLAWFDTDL

| Compound | IC50 [1] | IC50 [2] | IC50 [3] | IC50 [4] | IC50 [5] |
| --- | --- | --- | --- | --- | --- |
| CC(C)[C@@](O)(C[C@H]1C(=O)/C(=C(\O)[C@H]2[C@@H]3CCCC[C@H]3C=C[C@H]2C)C(=O)N1C)C(=O)O | 6000 nM | 6000 nM | 200 nM | 68000 nM | – |
| COc1cccc2c1C(=O)c1c(O)c3c(c(O)c1C2=O)C[C@@](O)(C(=O)CO)C[C@@H]3O[C@H]1C[C@H](N)[C@H](O)[C@H](C)O1 [DOXORUBICIN] | – | – | – | 55 nM | 37 nM |
| CC(=O)O[C@H]1C(=O)[C@@]2(C)[C@H]([C@H](OC(=O)c3ccccc3)[C@]3(O)C[C@H](OC(=O)[C@H](O)[C@@H](NC(=O)c4ccccc4)c4ccccc4)C(C)=C1C3(C)C)[C@]1(OC(C)=O)CO[C@@H]1C[C@@H]2O [PACLITAXEL] | – | – | – | 190 nM | 30 nM |
